{"source": "patent US20100016343A1", "about": "(WYETH, priority 2008, published 2010)", "key": {"CYP2C9": {"target": "CYP2C9 (Homo sapiens, UniProt P11712)", "sequence (P11712 whole entry, species assumed)": "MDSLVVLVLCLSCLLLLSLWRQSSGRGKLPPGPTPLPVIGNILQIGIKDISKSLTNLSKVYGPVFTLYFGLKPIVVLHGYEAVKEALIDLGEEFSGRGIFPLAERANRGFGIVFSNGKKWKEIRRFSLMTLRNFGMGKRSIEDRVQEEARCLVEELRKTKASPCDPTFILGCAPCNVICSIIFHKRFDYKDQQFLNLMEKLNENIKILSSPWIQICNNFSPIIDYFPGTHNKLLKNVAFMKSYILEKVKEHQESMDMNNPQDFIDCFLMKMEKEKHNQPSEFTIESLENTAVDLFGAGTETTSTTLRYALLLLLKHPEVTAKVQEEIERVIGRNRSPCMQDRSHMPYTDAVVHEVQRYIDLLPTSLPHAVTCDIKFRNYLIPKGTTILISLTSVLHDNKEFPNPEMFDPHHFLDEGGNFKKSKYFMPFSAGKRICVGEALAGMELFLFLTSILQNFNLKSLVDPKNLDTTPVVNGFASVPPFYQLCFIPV", "test": "CYP2C9 % inhibition", "format": "in vitro ADME"}, "[1]": {"target": "T1, alpha3 (ganglionic) nACh receptors (Homo sapiens, UniProt P30926+P32297)", "T1 construct": "using the native SH-SY5Y cell line; endogenous in cells; host or cells: SH-SY5Y", "T1 sequence (P32297 32-505)": "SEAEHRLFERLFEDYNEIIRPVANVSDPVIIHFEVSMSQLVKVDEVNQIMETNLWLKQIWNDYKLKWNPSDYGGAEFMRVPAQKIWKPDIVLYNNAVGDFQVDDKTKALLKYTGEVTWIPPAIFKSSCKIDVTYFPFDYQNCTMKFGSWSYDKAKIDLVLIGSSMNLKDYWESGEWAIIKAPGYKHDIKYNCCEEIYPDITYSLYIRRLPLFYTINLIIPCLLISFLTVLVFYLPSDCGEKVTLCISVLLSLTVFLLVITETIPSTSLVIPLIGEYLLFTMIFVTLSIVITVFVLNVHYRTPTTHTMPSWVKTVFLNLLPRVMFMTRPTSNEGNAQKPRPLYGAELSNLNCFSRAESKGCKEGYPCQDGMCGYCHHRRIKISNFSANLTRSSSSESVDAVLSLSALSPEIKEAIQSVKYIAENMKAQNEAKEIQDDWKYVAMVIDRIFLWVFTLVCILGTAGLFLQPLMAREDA", "T1 sequence (P30926 22-498)": "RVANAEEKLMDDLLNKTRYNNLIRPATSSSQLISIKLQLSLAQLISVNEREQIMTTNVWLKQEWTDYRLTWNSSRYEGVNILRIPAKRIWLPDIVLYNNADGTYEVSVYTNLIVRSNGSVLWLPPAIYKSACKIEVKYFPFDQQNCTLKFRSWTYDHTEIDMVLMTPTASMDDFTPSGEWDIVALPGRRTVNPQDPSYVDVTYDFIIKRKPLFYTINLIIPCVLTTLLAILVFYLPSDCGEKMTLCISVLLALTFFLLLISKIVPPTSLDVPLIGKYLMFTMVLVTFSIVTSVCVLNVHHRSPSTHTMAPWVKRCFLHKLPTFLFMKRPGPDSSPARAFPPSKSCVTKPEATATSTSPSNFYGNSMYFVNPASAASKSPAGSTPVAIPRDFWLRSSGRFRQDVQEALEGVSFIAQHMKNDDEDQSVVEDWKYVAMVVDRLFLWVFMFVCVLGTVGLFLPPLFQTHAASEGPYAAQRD", "test": "calcium-monitoring FLIPR selectivity assay using the native SH-SY5Y cell line", "format": "cell-based", "conditions": "read-out: Alpha 3 EC50", "excerpt": "Functional FLIPR assays were developed in order to test the selectivity of compounds against the alpha1 (muscular) and alpha3 (ganglionic) nACh receptors and the structurally related 5-HT3 receptor. […] In order to test selectivity against the 5-HT3 receptor, a recombinant cell line was constructed expressing the human 5-HT3A receptor in HEK 293 cells and a calcium-monitoring FLIPR assay employed."}, "CYP2D6": {"target": "CYP2D6 (Homo sapiens, UniProt P10635)", "sequence (P10635 whole entry, species assumed)": "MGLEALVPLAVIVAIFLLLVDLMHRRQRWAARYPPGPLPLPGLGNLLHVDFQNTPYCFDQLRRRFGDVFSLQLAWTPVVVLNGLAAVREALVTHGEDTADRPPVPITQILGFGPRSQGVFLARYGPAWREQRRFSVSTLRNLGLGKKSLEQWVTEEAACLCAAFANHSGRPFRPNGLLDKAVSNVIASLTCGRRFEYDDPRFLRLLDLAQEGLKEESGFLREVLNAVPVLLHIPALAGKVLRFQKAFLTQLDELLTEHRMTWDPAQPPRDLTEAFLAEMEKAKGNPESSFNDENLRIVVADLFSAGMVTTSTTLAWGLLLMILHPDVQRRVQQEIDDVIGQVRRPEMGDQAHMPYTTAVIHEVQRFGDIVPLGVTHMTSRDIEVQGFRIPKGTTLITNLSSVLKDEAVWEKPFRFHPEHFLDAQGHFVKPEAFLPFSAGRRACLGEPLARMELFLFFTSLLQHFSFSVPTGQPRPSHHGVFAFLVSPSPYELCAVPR", "test": "CYP2D6 % inhibition", "format": "in vitro ADME"}, "CYP3A4": {"target": "CYP3A4 (Homo sapiens, UniProt P08684)", "sequence (P08684 whole entry, species assumed)": "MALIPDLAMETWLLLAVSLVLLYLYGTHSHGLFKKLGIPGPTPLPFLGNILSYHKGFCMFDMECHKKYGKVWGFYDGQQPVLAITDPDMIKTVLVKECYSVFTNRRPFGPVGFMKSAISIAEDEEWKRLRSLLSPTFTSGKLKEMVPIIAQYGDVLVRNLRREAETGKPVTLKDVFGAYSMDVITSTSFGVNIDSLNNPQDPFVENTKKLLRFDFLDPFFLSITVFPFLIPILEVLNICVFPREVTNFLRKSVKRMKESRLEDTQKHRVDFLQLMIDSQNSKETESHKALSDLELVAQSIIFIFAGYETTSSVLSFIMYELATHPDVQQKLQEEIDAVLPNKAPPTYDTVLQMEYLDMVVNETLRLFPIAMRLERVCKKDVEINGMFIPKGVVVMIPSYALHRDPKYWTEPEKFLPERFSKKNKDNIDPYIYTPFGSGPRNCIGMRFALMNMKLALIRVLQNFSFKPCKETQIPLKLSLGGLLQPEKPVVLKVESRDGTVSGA", "test": "CYP3A4 % inhibition", "format": "in vitro ADME"}, "rat-alpha7-nAChR": {"target": "T2, rat-alpha7-nAChR (Rattus norvegicus, UniProt Q05941)", "T2 construct": "expressed in transfected cells", "T2 sequence (Q05941 23-502)": "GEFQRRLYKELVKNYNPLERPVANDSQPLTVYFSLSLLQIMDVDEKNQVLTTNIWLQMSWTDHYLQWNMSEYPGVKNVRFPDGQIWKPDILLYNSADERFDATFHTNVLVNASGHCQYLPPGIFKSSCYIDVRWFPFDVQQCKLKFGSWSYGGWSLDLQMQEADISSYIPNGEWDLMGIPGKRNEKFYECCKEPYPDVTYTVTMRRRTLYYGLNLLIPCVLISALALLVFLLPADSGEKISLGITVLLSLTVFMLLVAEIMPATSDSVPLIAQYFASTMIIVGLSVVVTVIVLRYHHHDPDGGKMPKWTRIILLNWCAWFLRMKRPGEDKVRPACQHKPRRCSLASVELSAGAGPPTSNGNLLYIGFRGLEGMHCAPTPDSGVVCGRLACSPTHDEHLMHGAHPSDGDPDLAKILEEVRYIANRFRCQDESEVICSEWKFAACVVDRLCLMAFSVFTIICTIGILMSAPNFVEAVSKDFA", "test": "functional FLIPR assay, alpha7 nAChR stably expressed in GH4C1 cells", "format": "cell-based", "conditions": "GH4C1 cell line expressing the alpha7 nAChR, concentration-response curves; read-out: Alpha 7 EC50", "excerpt": "Rat GH4C1 cells were then transfected with the rat receptor, cloned and analyzed for functional alpha7 nicotinic receptor expression employing a FLIPR assay to measure changes in intracellular calcium concentrations.\nThe FLIPR system allows the measurements of real time Ca^2+-concentration changes in living cells using a Ca^2+ sensitive fluorescence dye (such as Fluo4). This instrument enables the screening for agonists and antagonists for alpha 7 nAChR channels stably expressed in GH4C1 cells.\nGH4C1 cells stably transfected with rat-alpha7-nAChR (see above) were used. These cells are poorly adherent and therefore pretreatment of flasks and plates with poly-D-lysine was carried out. Cells are grown in 150 cm^2 T-flasks, filled with 30 ml of medium at 37° C. and 5% CO2.\nEC50 and IC50 values were calculated using the IDBS XLfit4.1 software package employing a sigmoidal concentration-response (variable slope) equation:\nY=Bottom+((Top−Bottom)/(1+((EC50/X)̂HillSlope))\nCertain compounds of the present disclosure were tested using the functional FLIPR primary screening assay employing the stable recombinant GH4C1 cell line expressing the alpha7 nAChR."}}}
{"smiles": "Cn1cc(-c2ccc(NC(=O)NCCCCN3CCCCC3)cn2)cn1", "values": [{"measurement": "CYP2C9 % inhibition", "setting": "CYP2C9", "result": 3, "unit": "%"}, {"measurement": "EC50", "setting": "[1]", "result": "> 30000", "unit": "nM"}, {"measurement": "CYP2D6 % inhibition", "setting": "CYP2D6", "result": 1, "unit": "%"}, {"measurement": "CYP3A4 % inhibition", "setting": "CYP3A4", "result": "−4", "unit": "%"}, {"measurement": "EC50", "setting": "rat-alpha7-nAChR", "result": 450, "unit": "nM"}]}
{"smiles": "Cn1cc(-c2ccc(NC(=O)NCCCCN3CCCCC3)cc2)cn1", "values": [{"measurement": "CYP2C9 % inhibition", "setting": "CYP2C9", "result": 9, "unit": "%"}, {"measurement": "EC50", "setting": "[1]", "result": 5040, "unit": "nM"}, {"measurement": "CYP2D6 % inhibition", "setting": "CYP2D6", "result": 45, "unit": "%"}, {"measurement": "CYP3A4 % inhibition", "setting": "CYP3A4", "result": 68, "unit": "%"}, {"measurement": "EC50", "setting": "rat-alpha7-nAChR", "result": 130, "unit": "nM"}]}
{"smiles": "O=C(NCCCCN1CCCCC1)Nc1ccc(-c2ccccc2F)nc1", "values": [{"measurement": "CYP2C9 % inhibition", "setting": "CYP2C9", "result": "−10", "unit": "%"}, {"measurement": "EC50", "setting": "[1]", "result": 5550, "unit": "nM"}, {"measurement": "CYP2D6 % inhibition", "setting": "CYP2D6", "result": 14, "unit": "%"}, {"measurement": "CYP3A4 % inhibition", "setting": "CYP3A4", "result": "−3", "unit": "%"}, {"measurement": "EC50", "setting": "rat-alpha7-nAChR", "result": 200, "unit": "nM"}]}
{"smiles": "O=C(NCCCCN1CCCCC1)Nc1ccc(-c2ccccc2F)cc1", "values": [{"measurement": "CYP2C9 % inhibition", "setting": "CYP2C9", "result": "−1", "unit": "%"}, {"measurement": "EC50", "setting": "[1]", "result": 1500, "unit": "nM"}, {"measurement": "CYP2D6 % inhibition", "setting": "CYP2D6", "result": 75, "unit": "%"}, {"measurement": "CYP3A4 % inhibition", "setting": "CYP3A4", "result": "−17", "unit": "%"}, {"measurement": "EC50", "setting": "rat-alpha7-nAChR", "result": 190, "unit": "nM"}]}
{"smiles": "COc1ccc(F)c(-c2ccc(NC(=O)NCCCCN3CCCCC3)cn2)c1", "values": [{"measurement": "CYP2C9 % inhibition", "setting": "CYP2C9", "result": 10, "unit": "%"}, {"measurement": "EC50", "setting": "[1]", "result": 4340, "unit": "nM"}, {"measurement": "CYP2D6 % inhibition", "setting": "CYP2D6", "result": 18, "unit": "%"}, {"measurement": "CYP3A4 % inhibition", "setting": "CYP3A4", "result": 43, "unit": "%"}, {"measurement": "EC50", "setting": "rat-alpha7-nAChR", "result": 80, "unit": "nM"}]}
{"smiles": "COc1ccc(F)c(-c2ccc(NC(=O)NCCCCN3CCCCC3)cc2)c1", "values": [{"measurement": "CYP2C9 % inhibition", "setting": "CYP2C9", "result": "−26", "unit": "%"}, {"measurement": "EC50", "setting": "[1]", "result": 2320, "unit": "nM"}, {"measurement": "CYP2D6 % inhibition", "setting": "CYP2D6", "result": 83, "unit": "%"}, {"measurement": "CYP3A4 % inhibition", "setting": "CYP3A4", "result": 51, "unit": "%"}, {"measurement": "EC50", "setting": "rat-alpha7-nAChR", "result": 100, "unit": "nM"}]}
{"smiles": "COc1ccccc1-c1ccc(NC(=O)NCCCCN2CCCCC2)cn1", "values": [{"measurement": "CYP2C9 % inhibition", "setting": "CYP2C9", "result": 6, "unit": "%"}, {"measurement": "EC50", "setting": "[1]", "result": 3860, "unit": "nM"}, {"measurement": "CYP2D6 % inhibition", "setting": "CYP2D6", "result": 8, "unit": "%"}, {"measurement": "CYP3A4 % inhibition", "setting": "CYP3A4", "result": 8, "unit": "%"}, {"measurement": "EC50", "setting": "rat-alpha7-nAChR", "result": 260, "unit": "nM"}]}
{"smiles": "COc1ccccc1-c1ccc(NC(=O)NCCCCN2CCCCC2)cc1", "values": [{"measurement": "CYP2C9 % inhibition", "setting": "CYP2C9", "result": "−2", "unit": "%"}, {"measurement": "EC50", "setting": "[1]", "result": 1080, "unit": "nM"}, {"measurement": "CYP2D6 % inhibition", "setting": "CYP2D6", "result": 38, "unit": "%"}, {"measurement": "CYP3A4 % inhibition", "setting": "CYP3A4", "result": 5, "unit": "%"}, {"measurement": "EC50", "setting": "rat-alpha7-nAChR", "result": 170, "unit": "nM"}]}
{"smiles": "O=C(NCCCCN1CCCCC1)Nc1ccc(-c2cccs2)nc1", "values": [{"measurement": "CYP2C9 % inhibition", "setting": "CYP2C9", "result": 2, "unit": "%"}, {"measurement": "EC50", "setting": "[1]", "result": 8430, "unit": "nM"}, {"measurement": "CYP2D6 % inhibition", "setting": "CYP2D6", "result": 7, "unit": "%"}, {"measurement": "CYP3A4 % inhibition", "setting": "CYP3A4", "result": 2, "unit": "%"}, {"measurement": "EC50", "setting": "rat-alpha7-nAChR", "result": 100, "unit": "nM"}]}
{"smiles": "O=C(NCCCCN1CCCCC1)Nc1ccc(-c2cccs2)cc1", "values": [{"measurement": "CYP2C9 % inhibition", "setting": "CYP2C9", "result": "−5", "unit": "%"}, {"measurement": "EC50", "setting": "[1]", "result": 3560, "unit": "nM"}, {"measurement": "CYP2D6 % inhibition", "setting": "CYP2D6", "result": 69, "unit": "%"}, {"measurement": "CYP3A4 % inhibition", "setting": "CYP3A4", "result": 24, "unit": "%"}, {"measurement": "EC50", "setting": "rat-alpha7-nAChR", "result": 190, "unit": "nM"}]}
{"smiles": "O=C(NCCCCN1CCCCC1)Nc1ccc(-c2cccc(F)c2)nc1", "values": [{"measurement": "CYP2C9 % inhibition", "setting": "CYP2C9", "result": 0, "unit": "%"}, {"measurement": "CYP2D6 % inhibition", "setting": "CYP2D6", "result": 10, "unit": "%"}, {"measurement": "CYP3A4 % inhibition", "setting": "CYP3A4", "result": 26, "unit": "%"}, {"measurement": "EC50", "setting": "rat-alpha7-nAChR", "result": 180, "unit": "nM"}]}
{"smiles": "O=C(NCCCCN1CCCCC1)Nc1ccc(-c2cccc(F)c2)cc1", "values": [{"measurement": "CYP2C9 % inhibition", "setting": "CYP2C9", "result": "−12", "unit": "%"}, {"measurement": "EC50", "setting": "[1]", "result": 1780, "unit": "nM"}, {"measurement": "CYP2D6 % inhibition", "setting": "CYP2D6", "result": 62, "unit": "%"}, {"measurement": "CYP3A4 % inhibition", "setting": "CYP3A4", "result": "−21", "unit": "%"}, {"measurement": "EC50", "setting": "rat-alpha7-nAChR", "result": 110, "unit": "nM"}]}
{"smiles": "O=C(NCCCCN1CCCCC1)Nc1ccc(-c2cccnc2)nc1", "values": [{"measurement": "CYP2C9 % inhibition", "setting": "CYP2C9", "result": "−3", "unit": "%"}, {"measurement": "EC50", "setting": "[1]", "result": 9880, "unit": "nM"}, {"measurement": "CYP2D6 % inhibition", "setting": "CYP2D6", "result": 22, "unit": "%"}, {"measurement": "CYP3A4 % inhibition", "setting": "CYP3A4", "result": 0, "unit": "%"}, {"measurement": "EC50", "setting": "rat-alpha7-nAChR", "result": 590, "unit": "nM"}]}
{"smiles": "O=C(NCCCCN1CCCCC1)Nc1ccc(-c2cccnc2)cc1", "values": [{"measurement": "CYP2C9 % inhibition", "setting": "CYP2C9", "result": "−22", "unit": "%"}, {"measurement": "EC50", "setting": "[1]", "result": 3610, "unit": "nM"}, {"measurement": "CYP2D6 % inhibition", "setting": "CYP2D6", "result": 72, "unit": "%"}, {"measurement": "CYP3A4 % inhibition", "setting": "CYP3A4", "result": 2, "unit": "%"}, {"measurement": "EC50", "setting": "rat-alpha7-nAChR", "result": 100, "unit": "nM"}]}
{"smiles": "O=C(NCCCCN1CCCCC1)Nc1ccc(-c2ccc(F)cc2)nc1", "values": [{"measurement": "EC50", "setting": "[1]", "result": 9530, "unit": "nM"}]}
